Experimental data reported in US8846606B2, “Method and drug composition for treating septic shock hypotension” (priority 2010, dated 2014).
Where two headings read alike, the source gives them in different places.

Assays:
[1] = test system: rats submitted to sepsis (lipopolysaccharide); settings: septic rats as compared to control animals; cited from earlier work
[2] = test system: alpha-1A / beta-2 adrenergic receptor; settings: unless beta-2 adrenergic receptor is activated by isoproterenol; cited from earlier work
[3] = test system: alpha-1 messengerRNA (mRNA); settings: in vitro, cited from earlier work
[4] = test system: hypertensive patients; settings: cited from earlier work
[5] = test system: alpha-1 receptors; settings: 72 h administration; accentuated in hypertensive vs normotensive rats; cited from earlier work
[6] = test system: alpha-2 receptors; settings: 72 h administration; accentuated in hypertensive vs normotensive rats; cited from earlier work
[7] = test system: patients presenting with septic shock
Description: (§1) In these patients, formal challenges were undertaken with noradrenaline or dobutamine boluses to rise the SBP by 25 mm Hg or the HR by 20 bpmin, respectively.

[8] = test system: septic shock in surgical patients
Description: as §1

[9] = test system: septic shock in a patient; settings: cited from earlier work
[10] = test system: tetraplegic patients; settings: cited from earlier work
[11] = test system: patients presenting with severe idiopathic hypotension; settings: clonidine 0.4-0.8 mg p.o.; cited from earlier work
[12] = test system: decerebrated rats; settings: catecholamine-depleted rats; cited from earlier work
[13] = test system: beta receptors located on lymphocytes; settings: cited from earlier work
[14] = test system: hypertensive patients; settings: after clonidine 0.2-0.4 mg/day for 6-8 weeks, cited from earlier work
[15] = test system: conscious or anesthetized patients; settings: clonidine 5 μg.kg−1 p.o.; cited from earlier work
[16] = test system: awake and anesthetized patients; settings: phenylephrine bolus 2 μg.kg−1; control +17 mm Hg; cited from earlier work
[17] = test system: aortic surgery patients; settings: cited from earlier work
[18] = test system: major abdominal surgery patients; settings: cited from earlier work
[19] = test system: liver transplant patients; settings: cited from earlier work
[20] = test system: beta receptor; settings: cited from earlier work
[21] = test system: patients presenting with moderate septic shock; settings: cited from earlier work
[22] = test system: alpha-1 receptors; settings: in vitro; cited from earlier work
[23] = test system: animals; settings: cited from earlier work
[24] = test system: beta-1 and alpha1b-receptors; settings: selected areas of the central nervous system; cited from earlier work
[25] = clonidine plus state of the art vs state of the art only
[26] = surgical patients pre-treated with clonidine
[27] = clonidine 2 μg.kg−1.h−1 i.v. over 10 min, after 30 to 60 min

## NC[C@H](O)c1ccc(O)c(O)c1 [NA, noradrenaline]
[1]
  blood pressure response to NA (vascular reactivity) reduced by a factor: 5
[2]
  intracellular calcium: do not increase

## CNC[C@H](O)c1ccc(O)c(O)c1 [adenaline]
[3]; short term (2-8 h)
  alpha-1 messengerRNA (mRNA): increases

## C[C@](N)(Cc1ccc(O)c(O)c1)C(=O)O [alpha-methyldopa]
[4]
  duration of the pressor response to NA: prolonged
  pressor response to NA: increase
[5]
  central regulation of alpha-1 receptors: up-regulation
[6]
  central regulation of alpha-2 receptors: down regulation

## Clc1cccc(Cl)c1N=C1NCCN1 [clonidine]
[7]; [25]
  lactate plasma concentration: more rapid reduction
  superior vena cava oxygen saturation: faster improvement
[7]; over 24 h, clonidine plus state of the art
  NA requirements needed to support the BP to an acceptable level (MAP>65 mm Hg or adequate diuresis): reduced dramatically
[7]; with acceptable diuresis and SBP
  total withdrawal of NA infusion: 48 to 72 h
[7]; within 24 h of state of the art treatment combined to clonidine infusion (1 μg.kg−1.h−1 for 24 h), vs baseline reactivity upon completion of initial resuscitation
  bolus dose of NA required to increase the SBP by 25 mm Hg, lowered by: 50 to 75%
[8]; despite low BP, no peripheral mottling
  capillary refill upon shock: very good
[8]; [26]
  recovery from septic shock: unimpaired
  response to vasopressors and inotropic agents: not blunted
[9]; patient pre-treated with clonidine
  plasma clonidine concentrations (therapeutic range): 1 to 2 ng/mL
[9]; upon septic shock, plasma clonidine in the therapeutic range
  rise in plasma catecholamines concentrations: 5-10 fold
[10]
  BP: does not lower
  plasma catecholamines concentrations: does not lower
  pressor response to noradrenaline or phenylephrine: Neither does clonidine modify
[11]
  increase of SBP: 40-70 mm Hg
[12]
  resting BP: “considerably” elevates
[13]; [27]
  beta receptors affinity: decrease
  beta receptors density on lymphocytes: increase
[13]; in vitro
  beta receptors, effect in vitro: No difference
[14]; from 2.6 μg, ns
  CD25: chronotropic dose of isoproterenol to increase HR by 25 bpmin: 1.9 µg
[14]; from 96 μg, n=30, p<0.05
  PD20: pressor dose of phenylephrine to increase BP by 20 mm Hg: 39 µg
[15]
  response to ephedrine: increased
[16]
  pressor response above baseline SBP: +31 mm Hg
[17]
  chronotropic reactivity to isoproterenol: increased
[18]
  vascular reactivity to phenylephrine: increased
[19]; clonidine group as referred to placebo group
  nadir of systolic and diastolic pressure upon liver declamping: higher
[19]; liver transplant
  noradrenaline requirements: lowered

## CC(CCc1ccc(O)cc1)NCCc1ccc(O)c(O)c1 (stereo not shown) [dobutamine]
[20]; septic patients
  change in heart rate (HR) on dobutamine challenge: +12 bpmin
[20]; septic shock patients, 10 μg.kg−1.min−1
  change in heart rate (HR) on dobutamine challenge: +3 bpmin

## O=[N+]([O-])OCC(CO[N+](=O)[O-])O[N+](=O)[O-] [nitroglycerin]
[21]; nitroglycerin bolus 0.5 mg then infusion 2 mg.h−1 (0.5-4 mg.h−1)
  patients discharged alive: 7 out of 8
[21]; nitroglycerin bolus 0.5 mg then infusion 2 mg.h−1
  peripheral blood flow: improved

## Cc1ccc(N(CC2=NCCN2)c2cccc(O)c2)cc1 [phentolamine]
[3]
  effect on the adrenaline-evoked increase in alpha-1 mRNA: unaffected
[22]
  effect on the decrease in alpha-1 binding: suppressed

## CC(C)NCC(O)COc1cccc2ccccc12 (stereo not shown) [propranolol]
[3]
  effect on the adrenaline-evoked increase in alpha-1 mRNA: suppresses
[22]
  effect on the decrease in alpha-1 binding: do not affect

## COC(=O)[C@H]1[C@H]2C[C@@H]3c4[nH]c5cc(OC)ccc5c4CCN3C[C@H]2C[C@@H](OC(=O)c2cc(OC)c(OC)c(OC)c2)[C@@H]1OC [reserpine]
[23]
  pressor response to NA and phenylphrine (PE): enhances
[24]
  beta-1 and alpha1b-receptors binding: increases
